Assay results: PubChem BioAssay AID1159565 (GlaxoSmithKline (GSK), 2015)
Active and inactive are the calls of the source. No rule for the calls is given here.

Tested on: T. cruzi-infected H9C2 cardiomyocytes, high-content imaging
Experiment: anti-T. cruzi activity in infected cardiomyocytes – imaging, H9C2 host cardiomyocytes, host toxicity (AID 1159565);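 also: infected cells incubated 72 h after plating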
[1] = measured here: H9C2 host cell toxicity
[2] = measured here: amastigotes per cell

Compound	IC50	IC50 [1] [nM]	IC50 [2] [nM]
OCCCNc1nc(Nc2ccncc2)nc2ccccc12	1300 nM	> 50000	200
CCS(=O)(=O)c1cccc(C(=O)Nc2nc(-c3ccccn3)cs2)c1	2500 nM	4000	1600
COc1ccc(C(=O)Nc2ccc(NC(=O)CO)cc2)cc1	> 50000 nM (inactive)	> 50000	> 50000
NC(=O)c1ncccc1Nc1nc(NC2CCC(O)CC2)ncc1Br (stereo not given)	2000 nM	630	500
CCCCn1nnnc1CSc1nc(C)cc(C)c1C#N	200 nM	> 50000	100
NC(=O)c1ccc(-c2cccc(OCCN3CCN(C4CCCCC4)CC3)c2)cc1	1600 nM	> 50000	790
O=c1cc(NCCCNCc2c[nH]c3ccc(Br)cc23)[nH]c2ccccc12	> 50000 nM (inactive)	> 50000	32000
CC(C)Oc1cccc(N2CCC(C(=O)N3CCCN(C(C)C)CC3)CC2)c1	630 nM	> 50000	250
CC(=O)NCCNc1cc(-c2ccnc(Nc3cccc(Cl)c3)n2)ccn1	1600 nM	400	160
c1ccc2sc(Nc3nc4ncccc4[nH]3)nc2c1	1600 nM	1000	1300
COc1ccc(NS(=O)(=O)c2cccc(NC(=O)c3cc(F)cc(F)c3)c2)cc1	500 nM	> 50000	500
O=C(NC1C(=O)N(c2ccccc2)C1c1cccnc1)c1ccc(Cl)s1 (stereo not given)	50 nM	> 50000	40
COc1ccc(C2CC(c3ccccc3Cl)=NN2C(=O)CNC(=O)C2CCC2)cc1 (stereo not given)	1600 nM	> 50000	1000
O=C(Nc1ccc(S(=O)(=O)N2CCCC2)cc1)c1ccc([N+](=O)[O-])s1	200 nM	1600	200
CC(C)N(C(=O)CN1C(=O)C(N)C(=O)N(c2ccccc2)c2ccccc21)c1ccccc1 (stereo not given)	320 nM	> 50000	400
O=C(CCCn1cnc([N+](=O)[O-])n1)Nc1cccc(Cl)c1	500 nM	> 50000	160
CN(C)S(=O)(=O)c1cccc(C(=O)Nc2nc(-c3ccccn3)cs2)c1	1600 nM	7900	1000
Cc1ccc(Nc2nc(N)nc(CNC(c3nc4ccccc4[nH]3)C(C)C)n2)cc1 (stereo not given)	7900 nM	> 50000	5000
NS(=O)(=O)c1ccc(Nc2nccc(-c3cnn4ncccc34)n2)cc1	16000 nM	320	790
COc1ccc2c(Cl)c(C(=O)N3CCC3)sc2c1Cl	2500 nM	> 50000	790
COc1ccc(NS(=O)(=O)c2cc(NC(=O)c3ccc([N+](=O)[O-])s3)ccc2OC)cc1	100 nM	> 50000	79
O=C(CSc1nnc2ccc(-c3ccc(F)cc3)nn12)N1CCCCC1	2000 nM	> 50000	1000
CCCC(=O)N(Cc1ccccn1)c1nc2ccccc2s1	100 nM	> 50000	79
CC(CCc1ccccc1)NC(=O)CN(Cc1ccccn1)Cc1ccccn1 (stereo not given)	10000 nM	> 79000	3200

Compound	IC50	IC50 [1] [nM]	IC50 [2] [nM]
Cc1cc(N2CCc3ccccc3C2)nc(Nc2ccc(S(=O)(=O)N3CCOCC3)cc2)n1	> 50000 nM (inactive)	> 50000	25000
Cc1[nH]nc(C(F)(F)F)c1NC(=O)CCn1cc(Cl)c([N+](=O)[O-])n1	25000 nM	> 50000	6300
CN(Cc1nnnn1C1CCN(Cc2ccc(-n3ccnc3)cc2)CC1)c1ccc(F)cc1F	320 nM	> 50000	320
CN(C)CCN(C)Cc1ccc(Cl)cc1NS(=O)(=O)c1ccc(Cl)c(Cl)c1	2000 nM	5000	2000
CN(CCOc1ccc(Cl)cc1)Cc1nc(N)nc(N(C)C)n1	10000 nM	> 50000	7900
Cc1ccc(S(=O)(=O)Cn2nnnc2C(c2cccnc2)N2CCN(c3ccccc3)CC2)cc1 (stereo not given)	320 nM	> 50000	320
O=C1CN(C2CCCc3c(OCc4ccncc4)cccc32)C(=O)N1C1CCCCC1 (stereo not given)	16 nM	> 50000	13
CCC(=O)N1N=C(c2ccc3c(c2)CCCC3)Sc2c1ncn2C(=O)CC	20000 nM	> 50000	13000
O=C(NC(c1ccc(Cl)cc1)c1cnccn1)C1CCN(C(=O)Nc2cccc(C(F)(F)F)c2)CC1 (stereo not given)	630 nM	> 50000	500
c1ccc(Nc2nc(-c3ccccn3)cc(N3CCOCC3)n2)cc1	> 50000 nM (inactive)	630	25000
CC(=O)NC1(c2ccccc2)CCN(CC(=O)Nc2ccccc2-c2ccccc2)CC1	7900 nM	> 50000	1600
COc1ccc2nc(N(Cc3cccnc3)C(=O)C3CCC3)sc2c1	130 nM	> 50000	100
COc1ccc(-c2cc(C)no2)cc1S(=O)(=O)Nc1ccc(F)c(Cl)c1	3200 nM	50000	4000
Cc1ccccc1NS(=O)(=O)c1ccc2[nH]cc(C(=O)NC3CCCC(C)C3C)c(=O)c2c1 (stereo not given)	6300 nM	6300	3200
CC(c1ccccn1)N(C)Cc1nc2ccccc2n1C(C)C (stereo not given)	6300 nM	> 50000	2000
CCC(CC)C(=O)Nc1ccc(-c2nnc(-c3ccc(OC)cc3)o2)cc1	13000 nM	> 50000	4000
O=[N+]([O-])c1cccc(Nc2cncc(-c3ccccc3CO)c2)c1	400 nM	> 50000	250
Cc1ncsc1CNc1cnc(-c2ccc3c(c2)OCCO3)c(-c2cnn(C)c2)c1	40000 nM	> 50000	20000
COc1ccccc1CNc1cc(C2CC2)nc(-c2nccn2C)n1	790 nM	630	1000
N#Cc1ccc(C(=O)Nc2cccc(-c3cccc(CN4CCC(O)CC4)c3)c2)cc1	7900 nM	32000	7900
Cc1nn(-c2nc(N)nc(-c3ccccn3)n2)c(C)c1Cc1ccccc1	3200 nM	20000	2000
CCN(CC)S(=O)(=O)c1ccc(C(=O)Nc2cc(C)nn2-c2nc(C)c(C)c(=O)[nH]2)cc1	1600 nM	> 50000	320
COc1ccc2ncc(F)c(NC(=O)C3(O)CCC(NCc4ccc5c(c4)OCCO5)CC3)c2n1 (stereo not given)	130 nM	32000	160
O=c1ccn(-c2ccc([N+](=O)[O-])cc2Cl)c2ccc(F)cc12	4000 nM	> 50000	1300

Compound	IC50	IC50 [1] [nM]	IC50 [2] [nM]
O=C(Nc1cccc(S(=O)(=O)Nc2ccc(Br)cc2)c1)c1ccc([N+](=O)[O-])s1	130 nM	2500	100
CC(=O)Nc1ccc(-c2cnc(N)c(-c3nc4ccc(F)cc4[nH]3)c2)cc1	> 50000 nM (inactive)	790	> 50000
COc1cc(OC)cc(C(NS(=O)(=O)c2ccc(Cl)c(C(F)(F)F)c2)c2nccn2C)c1 (stereo not given)	6300 nM	10000	3200
Cc1ccc(NC(=O)C(C)n2nc([N+](=O)[O-])c(Br)c2C)cc1Cl (stereo not given)	6300 nM	> 50000	3200
O=S(=O)(c1ccccc1C(F)(F)F)N1CCN(Cc2ccc(-n3ccnc3)cc2)CC1	250 nM	> 50000	200
Cc1cc(NC(=O)C2CC2)ccc1OC1CCN(Cc2ccco2)CC1	40000 nM	40000	20000
O=C(COc1ccccc1)Nc1ccccc1C(=O)Nc1nccs1	> 50000 nM (inactive)	> 50000	> 50000
COc1cccc(S(=O)(=O)Nc2ccc3c(c2)CC(N2CCC(NC(=O)C4CC4)CC2)C3)c1 (stereo not given)	> 50000 nM (inactive)	> 50000	32000
CCn1c(-c2nonc2N)nc2c([C@@H](C)O)ncc(O[C@H](CN)c3ccccc3)c21	10000 nM	630	7900
N#Cc1ccc(S(=O)(=O)N2CCN(Cc3cccc(-c4ccncc4)c3)CC2)cc1	250 nM	25000	200
CN1CCN(c2nc(-c3ccc(Cl)cc3)c3c(N)n(C)nc3n2)CC1	1000 nM	25000	790
N#Cc1cc(-c2ccnc(Nc3cccc(CN4CCOCC4)c3)n2)ccc1NCCN	32000 nM	7900	16000
O=C(Nc1ccc(Br)c(Cl)c1)Nc1ccc2c(c1)OCO2	5000 nM	> 50000	2000
O=C(NCCc1cccnc1)c1ccc(-c2ccccc2F)o1	200 nM	> 50000	200
CC1CN(S(=O)(=O)c2ccc(NC(=O)c3cc(C4CC4)nc4c3cnn4C(C)C)cc2)CC(C)O1 (stereo not given)	790 nM	> 50000	630
COc1cc(Cl)c(C)cc1NC(=O)c1ccc([N+](=O)[O-])s1	630 nM	2500	500
O=C1NCCn2ccc(Nc3nc(NC4CCC(O)CC4)ncc3Cl)c21 (stereo not given)	20000 nM	400	3200
CCc1nn(-c2ncc(F)c(NC(C)C)n2)c(N)c1C1CCCCC1	3200 nM	1000	1600
COc1ccc(OC)c(NC(=O)c2ccc([N+](=O)[O-])o2)c1	13000 nM	4000	7900
COc1cc(C(C)C)c(S(C)(=O)=O)cc1C(=O)N1CCN(c2ccccc2Cl)CC1	2500 nM	20000	2000
CC(=O)Nc1ccc(CN2CCC(N3CC(c4ccccc4)(c4ccccc4)OCC3=O)CC2)cc1	32000 nM	> 50000	20000
CCCCc1cc(Nc2cc(C3CCC3)[nH]n2)nc(N2CCC2C(N)=O)n1 (stereo not given)	3200 nM	790	1600
